Test results published in patent US20190309272A1, “Genetically Modified Cell Lines Including a TP53 Modification and Methods of Use” (UNIVERSITY OF SOUTH CAROLINA, priority 2018, published 2019).
Structures can show the parent of a compound that is named as a salt. Where two headings read alike, the source gives them in different places.

Experiments:
Type in all cases: cell-based, Human
MCF7 WT Parental pool = test: Drug screening, resazurin, MCF7 wild type parental pool
MCF7 TP53 KO 3.4 pool = test: Drug screening, resazurin, TP53 KO 3.4 pool
MCF7 TP53 KO 5.6 pool = test: Drug screening, resazurin, TP53 KO 5.6 pool
[1] = ten-day drug treatment, 156.25 nM to 10 μM, resazurin fluorescence

Structure (SMILES)	MCF7 WT Parental pool (AUC) (MCF7 WT Parental pool; [1])	TP53 KO 3.4 pool (AUC) (MCF7 TP53 KO 3.4 pool; [1])	TP53 KO 5.6 pool (AUC) (MCF7 TP53 KO 5.6 pool; [1])	MCF7 WT Parental pool (AUC) (MCF7 WT Parental pool)	TP53 KO 3.4 pool (AUC) (MCF7 TP53 KO 3.4 pool)	TP53 KO 5.6 pool (AUC) (MCF7 TP53 KO 5.6 pool)
C[C@]12CC[C@H](O)CC1=CC[C@@H]1[C@@H]2CC[C@]2(C)C(c3cccnc3)=CC[C@@H]12 [Abiraterone]	8.378	8.785	9.254			
CN(C)C/C=C/C(=O)Nc1cc2c(Nc3ccc(F)c(Cl)c3)ncnc2cc1O[C@H]1CCOC1 [Afatanib]	2.734	2.48	2.139			
CCc1cc2c(cc1N1CCC(N3CCOCC3)CC1)C(C)(C)c1[nH]c3cc(C#N)ccc3c1C2=O [Alectinib]	5.763	4.51	2.7			
CN(C)c1nc(N(C)C)nc(N(C)C)n1 [Altretamine]	8.059	8.874	8.473			
NCCCNCCSP(=O)(O)O [Amifostine]	8.456	9.108	9.73			
NCC(=O)CCC(=O)O [Aminolevulinic Acid]	8.749	9.101	8.787			
CC(C)(C#N)c1cc(Cn2cncn2)cc(C(C)(C)C#N)c1 [Anastrozole]	8.01	8.067	8.828			
CNC(=O)c1ccccc1Sc1ccc2c(/C=C/c3ccccn3)n[nH]c2c1 [Axitinib]	2.581	3.743	3.786			
Nc1ncn([C@@H]2O[C@H](CO)[C@@H](O)[C@H]2O)c(=O)n1 [Azactidine]	8.861	9.05	6.373			
O=C(/C=C/c1cccc(S(=O)(=O)Nc2ccccc2)c1)NO [Belinostat]	1.423	1.525	1.322			
Cn1c(CCCC(=O)O)nc2cc(N(CCCl)CCCl)ccc21 [Bendamustine Hydrochloride]				9.021	9.503	10.23
CC(C)C[C@H](NC(=O)[C@H](Cc1ccccc1)NC(=O)c1cnccn1)B(O)O [Bortezomib]	0.6974	0.673	0.7486			
COc1cc(Nc2c(C#N)cnc3cc(OCCCN4CCN(C)CC4)c(OC)cc23)c(Cl)cc1Cl [Bosutinib]	8.686	9.254	9.588			
CS(=O)(=O)OCCCCOS(C)(=O)=O [Busulfan]	9.118	9.336	8.834			
CO[C@H]1C(=O)[C@]2(C)[C@@H](OC)C[C@H]3OC[C@@]3(OC(C)=O)[C@H]2[C@H](OC(=O)c2ccccc2)[C@]2(O)C[C@H](OC(=O)[C@H](O)[C@@H](NC(=O)OC(C)(C)C)c3ccccc3)C(C)=C1C2(C)C [Cabazitaxel]	1.406	1.658	1.713			
COc1cc2nccc(Oc3ccc(NC(=O)C4(C(=O)Nc5ccc(F)cc5)CC4)cc3)c2cc1OC [Cabozantinib]	4.126	4.376	4.52			
CCCCCOC(=O)Nc1nc(=O)n([C@@H]2O[C@H](C)[C@@H](O)[C@H]2O)cc1F [Capecitabine]	9.004	9.208	9.284			
N.N.O=C([O-])C1(C(=O)[O-])CCC1.[Pt+2] [Carboplatin]	8.83	9.302	8.343			
CC(C)C[C@H](NC(=O)[C@H](CCc1ccccc1)NC(=O)CN1CCOCC1)C(=O)N[C@@H](Cc1ccccc1)C(=O)N[C@@H](CC(C)C)C(=O)[C@@]1(C)CO1 [Carfilzomib]	0.6359	0.6462	0.6678			
O=NN(CCCl)C(=O)NCCCl [Carmustine]	9.622	9.826	9.965			
Cc1cc(Nc2ncc(Cl)c(Nc3ccccc3S(=O)(=O)C(C)C)n2)c(OC(C)C)cc1C1CCNCC1 [Ceritinib]	1.637	1.482	1.421			
O=C(O)CCCc1ccc(N(CCCl)CCCl)cc1 [Chlorambucil]	16.08	16.5	17.6			
N.N.[Cl][Pt][Cl] [Cisplatin]	7.335	6.27	7.44			
